In brackets after ≈: the same amount, converted by molar mass.
Legend:
B. ovatus = details: Goldstein, et al.; cited from earlier work
Bilophila wadsworthia = experiment: Agar dilution MIC; assay type: cell-based
[1] = test system: Prevotella melaninogenica; experiment: Agar dilution MIC; assay type: cell-based
Clostridium dfficile = experiment: Agar dilution MIC; assay type: cell-based, Clostridium difficile
Fusobacterium russii = experiment: Agar dilution MIC; assay type: cell-based
Bacteroides gracilis = experiment: Agar dilution MIC; assay type: cell-based, Bacteroides gracilis (Campylobacter gracilis)
[2] = test system: Fusobacterium spp group 1; experiment: Agar dilution MIC; assay type: cell-based
F. necrophorum = experiment: Agar dilution MIC; assay type: cell-based; details: Fusobacterium necrophorum; read-out: concentration to which strains were susceptible (MIC)
[3] = test system: certain Porphyromonas strains; details: Goldstein, et al.; cited from earlier work
[4] = test system: Anaerobiospirillum thomasii; experiment: Agar dilution MIC; assay type: cell-based
Bacteroides tectum = experiment: Agar dilution MIC; assay type: cell-based
clostridial isolates = details: cited from earlier work
Prevotella intermedia = experiment: Agar dilution MIC; assay type: cell-based
[5] = test system: Anaerobiospirillum succiniciproducens; experiment: Agar dilution MIC; assay type: cell-based
[6] = test system: certain Prevotella strains; details: Goldstein, et al.; cited from earlier work
[7] = test system: Peptostreptococcus prevotii; experiment: Agar dilution MIC; assay type: cell-based
Veillonella spp. = experiment: Agar dilution MIC; assay type: cell-based
[8] = test system: Prevotella buccae-oris group; experiment: Agar dilution MIC; assay type: cell-based
[9] = test system: Peptostreptococcus micros; experiment: Agar dilution MIC; assay type: cell-based
Clostridium ramosum = experiment: Agar dilution MIC; assay type: cell-based

Question: Which results are given for `CO/N=C1\CN(c2nc3c(cc2F)c(=O)c(C(=O)O)cn3C2CC2)CC1CN` (racemic) [Gemifloxacin, (R,S)-7-(3-aminomethyl-4-methoxyiminopyrrolidin-1-yl)-1-cyclopropyl-6-fluoro-4-oxo-1,4-dihydro-1,8-naphthyridine-3-carboxylic acid]?
Answer: activity (B. ovatus): only limited activity; Minimal Inhibitory Concentration 90% (MIC90) (Bilophila wadsworthia; 16 isolates, agar supplemented with pyruvate): 4 µg/mL; MIC90 (Bilophila wadsworthia; Bilophila wadsworthia, 16 isolates, agar supplemented with pyruvate, read-out: Minimal Inhibitory Concentration 90% (MIC90)): ≥ 4 µg/mL; MIC50 (Bilophila wadsworthia; Bilophila wadsworthia, read-out: Minimal Inhibitory Concentration 50% (MIC50)): 0.25 µg/mL (≈ 0.642 µM); Minimal Inhibitory Concentration 90% (MIC90) ([1]; 12 isolates): 8 µg/mL; MIC90 ([1]; Prevotella melaninogenica, 12 isolates, read-out: Minimal Inhibitory Concentration 90% (MIC90)): ≥ 4 µg/mL; MIC50 ([1]; Prevotella melaninogenica, read-out: Minimal Inhibitory Concentration 50% (MIC50)): 1 µg/mL (≈ 2.57 µM); susceptibility to gemifloxacin (Clostridium dfficile): often resistant; Minimal Inhibitory Concentration 90% (MIC90) (Clostridium dfficile; 14 isolates): >8 µg/mL; MIC50 (Clostridium dfficile; Clostridium, read-out: Minimal Inhibitory Concentration 50% (MIC50)): 2 µg/mL (≈ 5.14 µM); MIC90 (Clostridium dfficile; Clostridium, read-out: Minimal Inhibitory Concentration 90% (MIC90), 14 isolates): ≥ 4 µg/mL; Minimal Inhibitory Concentration 90% (MIC90) (Fusobacterium russii): >8 µg/mL; MIC50 (Fusobacterium russii; Fusobacterium russii, read-out: Minimal Inhibitory Concentration 50% (MIC50)): > 8 µg/mL; MIC90 (Fusobacterium russii; Fusobacterium russii, read-out: Minimal Inhibitory Concentration 90% (MIC90)): ≥ 4 µg/mL; Minimal Inhibitory Concentration 90% (MIC90) (Bacteroides gracilis; 11 isolates): 1 µg/mL; MIC90 (Bacteroides gracilis; Campylobacter gracilis, 11 isolates, read-out: Minimal Inhibitory Concentration 90% (MIC90)): ≤ 2 µg/mL; MIC50 (Bacteroides gracilis; Campylobacter gracilis, read-out: Minimal Inhibitory Concentration 50% (MIC50)): ≤ 0.015 µg/mL; Minimal Inhibitory Concentration Range ([2]; 19 isolates): 0.06 to 8 µg/mL; MIC50 ([2]; Fusobacterium, GROUP1, read-out: Minimal Inhibitory Concentration 50% (MIC50)): 0.25 µg/mL (≈ 0.642 µM); MIC90 ([2]; Fusobacterium, GROUP1, 19 isolates, read-out: Minimal Inhibitory Concentration 90% (MIC90)): 8 µg/mL (≈ 20.5 µM); MIC (F. necrophorum): ≤ 2 µg/mL; activity [3]: showed activity; Minimal Inhibitory Concentration Range ([4]; 13 isolates): 0.06 to 0.25 µg/mL; MIC50 ([4]; Anaerobiospirillum thomasii, read-out: Minimal Inhibitory Concentration 50% (MIC50)): 0.125 µg/mL (≈ 0.321 µM); MIC90 ([4]; Anaerobiospirillum thomasii, 13 isolates, read-out: Minimal Inhibitory Concentration 90% (MIC90)): 0.125 µg/mL (≈ 0.321 µM); Minimal Inhibitory Concentration 90% (MIC90) (Bacteroides tectum; 22 isolates): 0.25 µg/mL; Minimal Inhibitory Concentration Range (Bacteroides tectum; 22 isolates): 0.06 to 8 µg/mL; Minimal Inhibitory Concentration 90% (MIC90) (Bacteroides tectum; 22 isolates, listed as gemifloxacin): ≤ 2 µg/mL; MIC50 (Bacteroides tectum; Bacteroides pyogenes, read-out: Minimal Inhibitory Concentration 50% (MIC50)): 0.125 µg/mL (≈ 0.321 µM); maximum MIC (clostridial isolates; Cormicon and Jones, ten clostridial isolates): 2 µg/mL; concentration to which all isolates were susceptible (MIC) (clostridial isolates; Marco, et al., 19 unspecieted clostridial isolates): ≤ 2 µg/mL; Minimal Inhibitory Concentration 90% (MIC90) (Prevotella intermedia; 11 isolates): 0.5 µg/mL; Minimal Inhibitory Concentration Range (Prevotella intermedia; 11 isolates): 0.06 to 1 µg/mL; Minimal Inhibitory Concentration 90% (MIC90) (Prevotella intermedia; 11 isolates, listed as gemifloxacin): ≤ 2 µg/mL; MIC50 (Prevotella intermedia; Prevotella intermedia, read-out: Minimal Inhibitory Concentration 50% (MIC50)): 0.25 µg/mL (≈ 0.642 µM); Minimal Inhibitory Concentration Range ([5]; 3 isolates): 0.5 to 2 µg/mL; MIC50 ([5]; Anaerobiospirillum succiniciproducens, read-out: Minimal Inhibitory Concentration 50% (MIC50)): 1 µg/mL (≈ 2.57 µM); activity [6]: showed activity; Minimal Inhibitory Concentration Range ([7]; 9 isolates): 0.06 to 0.25 µg/mL; MIC50 ([7]; Anaerococcus prevotii, read-out: Minimal Inhibitory Concentration 50% (MIC50)): 0.125 µg/mL (≈ 0.321 µM); Minimal Inhibitory Concentration 90% (MIC90) (Veillonella spp.; 24 isolates): 8 µg/mL; MIC90 (Veillonella spp.; Veillonella, 24 isolates, read-out: Minimal Inhibitory Concentration 90% (MIC90)): ≥ 4 µg/mL; MIC50 (Veillonella spp.; Veillonella, read-out: Minimal Inhibitory Concentration 50% (MIC50)): 1 µg/mL (≈ 2.57 µM); Minimal Inhibitory Concentration 90% (MIC90) ([8]; 22 isolates): 2 µg/mL; Minimal Inhibitory Concentration Range ([8]; 22 isolates): 0.5 to 8 µg/mL; MIC90 ([8]; Prevotella, 22 isolates, read-out: Minimal Inhibitory Concentration 90% (MIC90)): ≤ 2 µg/mL; MIC50 ([8]; Prevotella, read-out: Minimal Inhibitory Concentration 50% (MIC50)): 2 µg/mL (≈ 5.14 µM); Minimal Inhibitory Concentration Range ([9]; 12 isolates): 0.06 to 0.125 µg/mL; MIC50 ([9]; Parvimonas micra, read-out: Minimal Inhibitory Concentration 50% (MIC50)): 0.06 µg/mL (≈ 0.154 µM); MIC90 ([9]; Parvimonas micra, 12 isolates, read-out: Minimal Inhibitory Concentration 90% (MIC90)): 0.06 µg/mL (≈ 0.154 µM); Minimal Inhibitory Concentration Range (Clostridium ramosum; 10 isolates): 0.125 to 2 µg/mL; MIC50 (Clostridium ramosum; Thomasclavelia ramosa, read-out: Minimal Inhibitory Concentration 50% (MIC50)): 0.25 µg/mL (≈ 0.642 µM); MIC90 (Clostridium ramosum; Thomasclavelia ramosa, 10 isolates, read-out: Minimal Inhibitory Concentration 90% (MIC90)): 1 µg/mL (≈ 2.57 µM)

— patent US6455540B1, “Methods of use of quinolone compounds against anaerobic pathogenic bacteria” (priority 1999, dated 2002)
